What was measured:
Test in all cases: drug sensitivity score (DSS) (DSS (unitless, 0-50 scale)); higher = more sensitive (stronger viability inhibition); extreme values may be limits of the assay
Settings in all cases: 72 h; culture: 2D
FM-MEL-3 = test system: FM-MEL-3
Outline: (§1)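 Drug sensitivity scores, modified area-under-curve measures, were derived from dose-response curves fitted in the in-house Breeze software. The curves came from melanoma cell lines and patient-derived melanoma cultures (1000–1500 cells per well) grown in 2D in 384-well plates holding a 527-compound oncology library. Each compound was dissolved in DMSO or water and tested at five concentrations across a 10,000-fold range. Viability was read by CellTiter-Glo luminescence after 72 h at 37 °C.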

FM-MEL-6 = test system: FM-MEL-6
Outline: as §1

FM-MEL-2 = test system: FM-MEL-2
Outline: as §1

SK-MEL-28 = test system: SK-MEL-28
Outline: as §1

WM852 = test system: WM852
Outline: as §1

WM165 = test system: WM165
Outline: as §1

SK-MEL-2 = test system: SK-MEL-2
Outline: as §1

Bowes = test system: Bowes
Outline: as §1

Compound	drug sensitivity score (FM-MEL-3)	drug sensitivity score (FM-MEL-6)	drug sensitivity score (FM-MEL-2)	drug sensitivity score (SK-MEL-28)	drug sensitivity score (WM852)	drug sensitivity score (WM165)	drug sensitivity score (SK-MEL-2)	drug sensitivity score (Bowes)
O=c1[nH]cc(F)c(=O)[nH]1 [Fluorouracil]	0.4	0.7	1.7	0.7	0	2.3	0	0
CC(C)C(=O)Nc1ccc([N+](=O)[O-])c(C(F)(F)F)c1 [Flutamide]	0.5	0	0	0	0.5	0	0	0.1
COc1cc2c(Oc3ccc(NC(=O)C4(C(=O)Nc5ccc(F)cc5)CC4)cc3F)ccnc2cc1OCCCN1CCOCC1 [Foretinib]	3.2	0.9	3.1	2.6	2.2	2.6	0	5.1
COc1cc(Nc2ncc(F)c(Nc3ccc4c(n3)N(COP(=O)(O)O)C(=O)C(C)(C)O4)n2)cc(OC)c1OC [Fostamatinib]	2.1	1.9	4.6	2	0.5	3.5	0	2
C[C@]12CC[C@@H]3c4ccc(O)cc4C[C@@H](CCCCCCCCC[S+]([O-])CCCC(F)(F)C(F)(F)F)[C@H]3[C@@H]1CC[C@@H]2O (stereo partly specified) [Fulvestrant]	0	0	0	0	0	0	0	0
CC1(C)OCCn2c1nc1c(N3CCOCC3)nc(-c3cnc(N)nc3)nc12 [GDC-0084]	8.4	7.8	9.6	7.7	7.7	8.4	8.1	9.4
O=C(NOCCO)c1ccc2cncn2c1Nc1ccc(I)cc1F [GDC-0623]	8.9	6.2	16.5	8.9	2.4	7.6	16.8	1.4
C[C@H]1CN(C2COC2)CCN1c1ccc(Nc2cc(-c3ccnc(N4CCn5c(cc6c5CC(C)(C)C6)C4=O)c3CO)cn(C)c2=O)nc1 [GDC-0853]	0	0	0	0	0	0	0	0
O[C@H](C[C@H]1c2c(F)cccc2-c2cncn21)[C@H]1CC[C@H](O)CC1 [GDC-0919]	0.7	1.1	0.4	0.5	1.2	0	0	0.3
CNc1nc(Nc2cn(C(C)(C)C#N)nc2C)ncc1C(F)(F)F [GNE-0877]	0	0	0	0	0	0	0	0
CCNc1nc(Nc2cc(F)c(C(=O)N3CCOCC3)cc2OC)ncc1C(F)(F)F [GNE-7915]	2.6	0	0	0	0	0	0	0
CCCc1cc(C)[nH]c(=O)c1CNC(=O)c1cc(-c2ccnc(N3CCN(C)CC3)c2)cc2c1cnn2C(C)C [GSK343]	0.2	0	0.1	0	0	0	0.1	0
CCCOc1ccn2c(C(C)=O)cc(-c3ccccc3S(C)(=O)=O)c2c1 [GSK2801]	0	0	0.1	0	0	0	0	0.7
CCOC(=O)CCNc1cc(N2CCc3ccccc3CC2)nc(-c2ccccn2)n1 [GSK-J4]	20.9	1.3	1	0	2.3	3.2	0	11.2
C[C@@H]1C=C2C(=O)O[C@@H]3CC[C@H](C1)[C@]23O [Galiellalactone]	5.2	0.7	2.9	5.8	5.1	6.9	0	8.4
Cc1cccc(-c2nn3c(c2-c2ccnc4ccc(C(N)=O)cc24)CCC3)n1 [Galunisertib]	0	0	0	0	0	0	0	0
Cc1cc(Nc2cc(CN3CCOCC3)c3nc(C)c(Cc4ccc(Cl)cc4F)n3n2)n[nH]1 [Gandotinib]	6.9	2.2	3	3.6	4	5.9	0	4.8
CC(C)c1cc(-c2n[nH]c(=O)n2-c2ccc3c(ccn3C)c2)c(O)cc1O [Ganetespib]	21	7	11.2	8.5	9.9	17.1	12.8	15.2
CN(C)C1CCN(C(=O)c2ccc(NC(=O)Nc3ccc(-c4nc(N5CCOCC5)nc(N5CCOCC5)n4)cc3)cc2)CC1 [Gedatolisib]	9.8	9.4	6.1	9.5	7.5	14.8	10.6	12.6
COc1cc2ncnc(Nc3ccc(F)c(Cl)c3)c2cc1OCCCN1CCOCC1 [Gefitinib]	2.4	2.7	2.6	2.9	3	4.6	0	2.9
Nc1ccn([C@@H]2O[C@H](CO)[C@@H](O)C2(F)F)c(=O)n1 [Gemcitabine]	8.6	10.3	4.3	13.7	0	18.9	6.3	0

Compound	drug sensitivity score (FM-MEL-3)	drug sensitivity score (FM-MEL-6)	drug sensitivity score (FM-MEL-2)	drug sensitivity score (SK-MEL-28)	drug sensitivity score (WM852)	drug sensitivity score (WM165)	drug sensitivity score (SK-MEL-2)	drug sensitivity score (Bowes)
CCc1nc(C(N)=O)c(Nc2ccc(N3CCC(N4CCN(C)CC4)CC3)c(OC)c2)nc1NC1CCOCC1 [Gilteritinib]	5	1.9	3.7	2.7	1.8	2.8	1.7	0
CCN(CC)Cc1ccc2cc(COC(=O)Nc3ccc(C(=O)NO)cc3)ccc2c1 [Givinostat]	5.2	5.8	4.3	4.9	2.2	6.6	5.6	2
CN1CC[C@@H](NC(=O)Nc2ccc(C#N)cc2)C[C@@H]1c1nc2ccccc2[nH]1 [Glasdegib]	0	0	0	0	0	0	0	0
COCCNCc1ccc(-c2cc3nccc(Oc4ccc(NC(=S)NC(=O)Cc5ccc(F)cc5)cc4F)c3s2)nc1 [Glesatinib]	0	0	0.4	0	0	0	0	0
CN1CCN(C2CCN(C(=O)Nc3cc(Oc4ccc(NC(=O)C5(C(=O)Nc6ccc(F)cc6)CC5)c(F)c4)ccn3)CC2)CC1 [Golvatinib]	0	0	1.5	0	0.5	0	0	2.3
CC(C)C[C@H](NC(=O)[C@@H](COC(C)(C)C)NC(=O)[C@H](Cc1ccc(O)cc1)NC(=O)[C@H](CO)NC(=O)[C@H](Cc1c[nH]c2ccccc12)NC(=O)[C@H](Cc1cnc[nH]1)NC(=O)[C@@H]1CCC(=O)N1)C(=O)N[C@@H](CCCNC(=N)N)C(=O)N1CCC[C@H]1C(=O)NNC(N)=O [Goserelin]	0	0	0	0	0	0	0	0
O=S(=O)(c1cccc2c(O)nccc12)N1CCCNCC1 [Hydroxyfasudil]	0	1.8	0	0	0	0	0	0
NC(=O)NO [Hydroxyurea]	6.8	2.2	0	0	0	0.1	0	2.4
COc1cc2c(cc1-c1c(C)noc1C)ncc1[nH]c(=O)n([C@H](C)c3ccccn3)c12 [I-BET151]	4.7	5	5.2	3.1	0	8.7	0.3	4.6
O=C(O)c1ccc(O)c2ncccc12 [IOX-1]	0.8	0.9	0.4	0.8	0	4.3	0	0
O=C(O)CNC(=O)c1c(O)c2ccccc2n(Cc2ccccc2)c1=O [IOX-2]	0	0	0	0	0.2	0	0	0
C=CC(=O)N1CCC[C@@H](n2nc(-c3ccc(Oc4ccccc4)cc3)c3c(N)ncnc32)C1 [Ibrutinib]	0	0	0.2	0	0	0	0	2.8
C#Cc1cccc(Nc2ncnc3cc4c(cc23)OCCOCCOCCO4)c1 [Icotinib]	0.1	0.9	0.4	0.1	0.1	0	0	0
CC(=O)[C@]1(O)Cc2c(O)c3c(c(O)c2[C@@H](O[C@H]2C[C@H](N)[C@H](O)[C@H](C)O2)C1)C(=O)c1ccccc1C3=O [Idarubicin]	10.9	8.1	8.4	8.4	4.8	15.4	9.7	5.4
COc1cc(C(=O)O)ccc1NC(=O)[C@@H]1N[C@@H](CC(C)(C)C)[C@](C#N)(c2ccc(Cl)cc2F)[C@H]1c1cccc(Cl)c1F [Idasanutlin]	19.7	0.3	3.7	0	0	22.7	0	3.4
CC[C@H](Nc1ncnc2[nH]cnc12)c1nc2cccc(F)c2c(=O)n1-c1ccccc1 [Idelalisib]	1	1.8	3.1	4.1	0.4	0.7	0	0.2
Cc1ccc(NC(=O)c2ccc(CN3CCN(C)CC3)cc2)cc1Nc1nccc(-c2cccnc2)n1 [Imatinib]	0	0	0.8	0.2	0.7	0.1	0	1
CC(C)Cn1cnc2c(N)nc3ccccc3c21 [Imiquimod]	0	0	0	0	0.1	0	0	4.7
O=C(Nc1ccncc1)C(=O)c1cn(Cc2ccc(Cl)cc2)c2ccccc12 [Indibulin]	6.1	6.9	1.4	4	5.3	7.8	3.7	11.1
CCN1CCN(c2ccc(Nc3cc(N(C)C(=O)Nc4c(Cl)c(OC)cc(OC)c4Cl)ncn3)cc2)CC1 [Infigratinib]	0	0	0	0	0	0	0	0
CC(C)NC[C@@H](C(=O)N1CCN(c2ncnc3c2[C@H](C)C[C@H]3O)CC1)c1ccc(Cl)cc1 [Ipatasertib]	0.3	0.9	2.1	1.7	0	2.2	0	0

— the supplement of paper PMC8633005
